Counter-ions that a name gives are not always drawn.
melting point | Structure (SMILES)
106 to 108 °C | CCCCCS(=O)(=O)NC(=O)/C=C/c1ccc(OCCO[Si](C(C)C)(C(C)C)C(C)C)cc1Oc1ncc(C(F)(F)F)cc1Cl
98 to 100 °C | CCCCCS(=O)(=O)NC(=O)/C=C/c1ccc(OCC(C)(C)O)cc1Oc1ncc(C(F)(F)F)cc1Cl (as salt: acetate) (hydrate or solvate) [Example 250, (2E)-3-[2-{[3-chloro-5-(trifluoromethyl)pyridin-2-yl]oxy}-4-(2-hydroxy-2-methylpropoxy)phenyl]-N-(pentylsulfonyl)acrylamide]
108 to 108.5 °C | CCCCCS(=O)(=O)NC(=O)/C=C/c1ccc(OCCO[Si](c2ccccc2)(c2ccccc2)C(C)(C)C)cc1Oc1ncc(C(F)(F)F)cc1Cl (hydrate or solvate)
94 to 96 °C | CCCCS(=O)(=O)NC(=O)OCCCc1ccc(OCCOC)cc1Oc1ncc(C(F)(F)F)cc1Cl.O (hydrate or solvate)
129 to 129.5 °C | CC(C)Oc1ccc(CCC(=O)NS(=O)(=O)c2ccccc2)c(Oc2ncc(C(F)(F)F)cc2Cl)c1 [Example 4, 3-(2-{[3-chloro-5-(trifluoromethyl)pyridin-2-yl]oxy}-4-isopropoxyphenyl)-N-(phenylsulfonyl)propanamide]
118 to 120 °C | COCCOc1ccc(CCC(=O)NS(=O)(=O)c2ccc(OC)cc2)c(Oc2ncc(C(F)(F)F)cc2Cl)c1 [Example 7, 3-[2-{[3-chloro-5-(trifluoromethyl)pyridin-2-yl]oxy}-4-(2-methoxyethoxy)phenyl]-N-[(4-methoxyphenyl)sulfonyl]propanamide]
136 to 138 °C | COCCOc1ccc(CCC(=O)NS(=O)(=O)c2ccc(F)cc2)c(Oc2ncc(C(F)(F)F)cc2Cl)c1 [Example 11, 3-[2-{[3-chloro-5-(trifluoromethyl)pyridin-2-yl]oxy}-4-(2-methoxyethoxy)phenyl]-N-[(4-fluorophenyl)sulfonyl]propanamide]
89 to 90 °C | COCCOc1ccc(CCCNS(C)(=O)=O)c(Oc2ncc(C(F)(F)F)cc2Cl)c1 [Example 15, N-{3-[2-{[3-chloro-5-(trifluoromethyl)pyridin-2-yl]oxy}-4-(2-methoxyethoxy)phenyl]propyl}methanesulfonamide]
94 to 95 °C | COCCOc1ccc(CCCNS(=O)(=O)c2ccccc2)c(Oc2ncc(C(F)(F)F)cc2Cl)c1 [Example 16, N-{3-[2-{[3-chloro-5-(trifluoromethyl)pyridin-2-yl]oxy}-4-(2-methoxyethoxy)phenyl]propyl}benzenesulfonamide]
97 to 100 °C | COCCOc1ccc(CCCNS(=O)(=O)Cc2ccccc2)c(Oc2ncc(C(F)(F)F)cc2Cl)c1 [Example 19, N-{3-[2-{[3-chloro-5-(trifluoromethyl)pyridin-2-yl]oxy}-4-(2-methoxyethoxy)phenyl]propyl}-1-phenylmethanesulfonamide]
101.8 to 102 °C | COCCOc1ccc(CCCNS(=O)(=O)CCCc2ccccc2)c(Oc2ncc(C(F)(F)F)cc2Cl)c1 [Example 21, N-{3-[2-{[3-chloro-5-(trifluoromethyl)pyridin-2-yl]oxy}-4-(2-methoxyethoxy)phenyl]propyl}-3-phenylpropane-1-sulfonamide]
111 to 113 °C | COCCOc1ccc(CCCNS(=O)(=O)c2ccc(Cl)cc2)c(Oc2ncc(C(F)(F)F)cc2Cl)c1 [Example 22, 4-chloro-N-{3-[2-{[3-chloro-5-(trifluoromethyl)pyridin-2-yl]oxy}-4-(2-methoxyethoxy)phenyl]propyl}benzenesulfonamide]
110 to 114 °C | COCCOc1ccc(CCCNS(=O)(=O)c2cccc(Cl)c2)c(Oc2ncc(C(F)(F)F)cc2Cl)c1 [Example 24, 3-chloro-N-{3-[2-{[3-chloro-5-(trifluoromethyl)pyridin-2-yl]oxy}-4-(2-methoxyethoxy)phenyl]propyl}benzenesulfonamide]
106 to 106.5 °C | CCCCCS(=O)(=O)NC/C=C/c1ccc(OCCOC)cc1Oc1ncc(C(F)(F)F)cc1Cl [Example 27, N-{(2E)-3-[2-{[3-chloro-5-(trifluoromethyl)pyridin-2-yl]oxy}-4-(2-methoxyethoxy)phenyl]-2-propen-1-yl}pentane-1-sulfonamide]
125.5 to 126 °C | COCCOc1ccc(CCCNS(=O)(=O)c2ccccc2[N+](=O)[O-])c(Oc2ncc(C(F)(F)F)cc2Cl)c1 [Example 29, N-{3-[2-{[3-chloro-5-(trifluoromethyl)pyridin-2-yl]oxy}-4-(2-methoxyethoxy)phenyl]propyl}-2-nitrobenzenesulfonamide]
149 °C | CC(C)Oc1cc(CCCNC(=O)NS(=O)(=O)c2ccccc2)n(Cc2ccc(Cl)cc2Cl)n1 [Example 39, N-[({3-[1-(2,4-dichlorobenzyl)-3-isopropoxy-1H-pyrazol-5-yl]propyl}amino)carbonyl]benzenesulfonamide]
80 to 82 °C | CCCCCS(=O)(=O)NCC(C)Cc1ccc(OCCOC)cc1Oc1ncc(C(F)(F)F)cc1Cl (centres unmarked) [Example 41, N-{3-[2-{[3-chloro-5-(trifluoromethyl)pyridin-2-yl]oxy}-4-(2-methoxyethoxy)phenyl]-2-methylpropyl}pentane-1-sulfonamide]
120 to 120.5 °C | CCCCCS(=O)(=O)NC(=O)CCc1ccc(OC(C)C)cc1OCc1ccc(Cl)cc1Cl [Example 42, 3-{2-[(2,4-dichlorobenzyl)oxy]-4-isopropoxyphenyl}-N-(pentylsulfonyl)propanamide]
130 to 132 °C | COCCOc1ccc(CCC(=O)NS(=O)(=O)CCC(C)C)c(Oc2ncc(C(F)(F)F)cc2Cl)c1 [Example 43, 3-[2-{[3-chloro-5-(trifluoromethyl)pyridin-2-yl]oxy}-4-(2-methoxyethoxy)phenyl]-N-[(3-methylbutyl)sulfonyl]propanamide]
123 to 125 °C | CCN(CC)C(=O)COc1ccc(CCC(=O)NS(=O)(=O)CCC(C)C)c(Oc2ncc(C(F)(F)F)cc2Cl)c1 [Example 45, 3-{2-{[3-chloro-5-(trifluoromethyl)pyridin-2-yl]oxy}-4-[2-(diethylamino)-2-oxoethoxy]phenyl}-N-[(3-methylbutyl)sulfonyl]propanamide]
82.3 to 82.4 °C | COCCOc1ccc(CCCOC(=O)N2CCOCC2)c(Oc2ncc(C(F)(F)F)cc2Cl)c1 [Example 48, 3-[2-{[3-chloro-5-(trifluoromethyl)pyridin-2-yl]oxy}-4-(2-methoxyethoxy)phenyl]propyl morpholine-4-carboxylate]
91.7 to 91.8 °C | CCCCNC(=O)OCCCc1ccc(OCCOC)cc1Oc1ncc(C(F)(F)F)cc1Cl [Example 49, 3-[2-{[3-chloro-5-(trifluoromethyl)pyridin-2-yl]oxy}-4-(2-methoxyethoxy)phenyl]propyl butylcarbamate]
54 to 55.2 °C | CCCCN(C)C(=O)OCCCc1ccc(OCCOC)cc1Oc1ncc(C(F)(F)F)cc1Cl [Example 50, 3-[2-{[3-chloro-5-(trifluoromethyl)pyridin-2-yl]oxy}-4-(2-methoxyethoxy)phenyl]propyl butyl(methyl)carbamate]
94 to 94.5 °C | CCN(CC)C(=O)COc1ccc(CCCOC(=O)NCC2CC2)c(Oc2ncc(C(F)(F)F)cc2Cl)c1 [Example 52, 3-{2-{[3-chloro-5-(trifluoromethyl)pyridin-2-yl]oxy}-4-[2-(diethylamino)-2-oxoethoxy]phenyl}propyl (cyclopropylmethyl)carbamate]
112.8 to 113 °C | CCOC(=O)COc1ccc(CCCOC(=O)NCC2CC2)c(Oc2ncc(C(F)(F)F)cc2Cl)c1 [Example 53, ethyl {3-{[3-chloro-5-(trifluoromethyl)-pyridin-2-yl]oxy}-4-[3-({[(cyclopropylmethyl)amino]carbonyl}-oxy)propyl]phenoxy}acetate]
83.5 to 85 °C | COCCCNC(=O)OCCCc1ccc(OCCOC)cc1Oc1ncc(C(F)(F)F)cc1Cl [Example 55, 3-[2-{[3-chloro-5-(trifluoromethyl)pyridin-2-yl]oxy}-4-(2-methoxyethoxy)phenyl]propyl (3-methoxypropyl)carbamate]
66 to 68 °C | CCOCCNC(=O)OCCCc1ccc(OCCOC)cc1Oc1ncc(C(F)(F)F)cc1Cl [Example 56, 3-[2-{[3-chloro-5-(trifluoromethyl)pyridin-2-yl]oxy}-4-(2-methoxyethoxy)phenyl]propyl (2-ethoxyethyl)carbamate]
129.5 to 130 °C | COCCCS(=O)(=O)NC(=O)/C=C/c1ccc(OC(C)C)cc1Oc1ncc(C(F)(F)F)cc1Cl [Example 57, (2E)-3-[2-{[3-chloro-5-(trifluoromethyl)pyridin-2-yl]oxy}-4-isopropoxyphenyl]-N-[(3-methoxypropyl)sulfonyl]acrylamide]
122 to 124 °C | COCCOc1ccc(COC(=O)NS(=O)(=O)CCC(C)C)c(Oc2ncc(C(F)(F)F)cc2Cl)c1 [Example 59, 2-{[3-chloro-5-(trifluoromethyl)pyridin-2-yl]oxy}-4-(2-methoxyethoxy)benzyl [(3-methylbutyl)sulfonyl]carbamate]
160 to 161 °C | COCCOc1ccc(COC(=O)NS(=O)(=O)NCC(C)C)c(Oc2ncc(C(F)(F)F)cc2Cl)c1 [Example 60, 2-{[3-chloro-5-(trifluoromethyl)pyridin-2-yl]oxy}-4-(2-methoxyethoxy)benzyl [(isobutylamino)sulfonyl]carbamate]

Structure (SMILES) | melting point
COCCOc1ccc(CCCOC(=O)NS(=O)(=O)c2ccc(C)cc2)c(Oc2ncc(C(F)(F)F)cc2Cl)c1.O (hydrate or solvate) [Example 30, 3-[2-{[3-chloro-5-(trifluoromethyl)pyridin-2-yl]oxy}-4-(2-methoxyethoxy)phenyl]propyl [(4-methylphenyl)sulfonyl]carbamate monohydrate] | 118 to 120 °C
COCCOc1ccc(/C=C/COC(=O)NS(=O)(=O)c2ccc(Cl)cc2)c(Oc2ncc(C(F)(F)F)cc2Cl)c1.O.O (hydrate or solvate) [Example 37, (2E)-3-[2-{[3-chloro-5-(trifluoromethyl)pyridin-2-yl]oxy}-4-(2-methoxyethoxy)phenyl]-2-propen-1-yl [(4-chlorophenyl)sulfonyl]carbamate dihydrate] | 174.5 °C (dec.)

From patent US20100041892A1, “Therapeutic agent for diabetes” (priority 2005, published 2010)
